Assay [1] deals with Human Umbilical Vein Endothelial Cells (HUVEC). Put plainly: IL-8 ELISA on primary cultured HUVEC treated with lysolipids. Format: cell-based. The settings on record: 5 μM, 6 hr. The procedure:
Plating, Pretreatment and Treatment of HUVEC
Procedures were followed as detailed above in “Procedure #1 for HeLa Cells” with the following exceptions:
Cells were plated at 20,000 cells/well into 24-well plates. The next day, cells were serum-starved overnight in EBM medium (Clonetics) with 0.5% FBS, and then treated in EBM without FBS for 6 hr with the following lysolipids:
Supematants were collected and IL-8 levels were deternined using ELISA as described previously.

In the next assay the test system is HL-60 cells. Put plainly: IL-8 ELISA on HL-60 cells. Format: cell-based, human. The settings on record: 1, 6 or 24 hr, S1P or LPA up to 3 μM, TNF-α 10 ng/ml. The procedure:
Procedure for HL-60 Cells:
Cells: HL-60 (promyelocytic, human) suspension cells
Media: RPMI 1640 medium with 2 mM L-glutamine adjusted to contain 4.5 g/L glucose, 10 mM HEPES, and 1.0 mM sodium pyruvate+10% FBS
1) Cells were plated at a density of 0.25×10^6 cells/ml.
2) Cell pellcts were resuspended in 0.5% FBS media at a density of approximately 1×10^6 cells/ml.
1) Made up all required solutions in 0.5% FBS media (control).
2) 1.4 ml appropriate treatments were added to each well of a 6-well plate.
5) 100 μl cell suspension was added to each well.
7) After the specified time cell supematants were collected into 1.5 ml eppendorf tubes, spun down at 14000 rpm for 5 minutes and stored at −20° C.
D. Refer to Procedure #1 For HeLa Cells (D).

In another assay the test system is 293-EBNA cells. Put plainly: IL-8 production in untransfected 293-EBNA cells. The assay is classed as cell-based.
Assay [2] concerns 293-EBNA cells transfected with empty expression vector pcDNA3. Put plainly: NF-κB luciferase reporter in 293-EBNA cells, empty vector pcDNA3. The assay is classed as cell-based. The settings on record: pcDNA3; 10 μM LPA; overnight. The procedure:
Monolayer Transient Transfection Protocol for 293-EBNA
2) 6.6 μg NF-κB-tk-p4Luc reporter DNA and 6.6 μg of pC3-redg4 (expressing rat EDG-4), or pcDNA3 DNA was diluted in 500 μl OPTI-MEM (Gibco; Cat. 31985-062)
2) After 6 hrs, media was removed and cells treated with compounds diluted in 0.5% FBS media (140 μl added to each well).
3) Cells were treated for 24 hrs.
1) Luclite kit (Packard; Cat. 6016911) was used for luciferase assay. All reagents were brought to room temperature before use.
7) After incubation, plates were counted in a 12-detector Packard Top Count on a program without dark delay.
(§1) The above protocol for assay 1 was followed except for the following changes:
(§2) 2) 3 μg NFκB-tk-p4Luc reporter DNA and 3 μg pC3-hedg1, pC3-hedg3, pC3-redg4, pC3-hedg5 or pcDNA3 DNA was diluted in 240 μl OPTI-MEM (Gibco; Cat. 31985-062)
(§3) 2) SRE Cotransfection: 0.5 μg of 2XSREtk-p4Luc-zeo reporter DNA and 3.5 μg pcDNA3, EDG-1, EDG-3 (pC3-hE3HP2, different from the clone used in Assay 2 of Example 11) or the newly cloned human EDG-4 (pC3-hedg4#36); NF-κB Cotransfection: 2 μg 6XNFκBtk-p4Luc-zeo reporter DNA and 2.0 μg pcDNA3, EDG-1, EDG-3 (pC3-hE3HP2), or EDG-4 (pC3-hedg4#36). Expression plasmid and reporter plasmid DNA samples were combined and diluted in 750 μl of DMEM/F12 (serum free media) and 20 μl Plus Reagent (Lipofectamine Plus Kit, Life Technologies Cat. 10964-013), and incubated at room temperature for 15 min.
(§4) 1) Media was removed and cells treated with compounds diluted in DMEM/F12 media.
(§5) 2) The cells were treated for 6 hours.
(§6) 293-EBNA cells were grown, lipofected in monolayer cultures, and pretreated as described above for Example 11, assay #1, except that NF-κB and AP-1 reporter-transfected cells were pretreated for 6 hr in medium containing 0.5% FBS, then treated overnight in the same medium with or without 10 μM LPA.

The target in assay [3] is T1, EDG-5 (Homo sapiens, UniProt Q9UBY5).
T1 construct: expressed in transfected cells; host or cells: 293-EBNA
T1 sequence (Q9UBY5 1-353): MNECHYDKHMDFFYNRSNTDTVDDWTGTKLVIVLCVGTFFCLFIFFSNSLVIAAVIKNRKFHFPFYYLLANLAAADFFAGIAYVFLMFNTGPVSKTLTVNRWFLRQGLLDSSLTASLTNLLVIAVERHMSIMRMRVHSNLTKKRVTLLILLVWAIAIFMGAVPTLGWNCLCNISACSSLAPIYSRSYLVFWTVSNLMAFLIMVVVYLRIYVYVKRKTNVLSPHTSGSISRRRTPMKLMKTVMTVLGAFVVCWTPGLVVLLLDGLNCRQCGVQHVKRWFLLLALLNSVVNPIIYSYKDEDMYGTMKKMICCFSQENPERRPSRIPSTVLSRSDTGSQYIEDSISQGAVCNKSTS
Put plainly: NF-κB luciferase reporter in 293-EBNA cells, EDG-5. The assay is classed as cell-based. The settings on record: 10 μM LPA, overnight. The procedure:
Transient Transfection Protocol for 293-EBNA
as §1, §2
1) 0.01×10^6 cells were plated per well of a 96-well Blackview plate coated with polyD-lysine. No cells were plated in the outside wells of the 96-well plate.
LPA, like S1P, is abundant in serun, but not plasma. Moreover, LPA is produced as a consequence of phospholipase A2 with or without the contribution of phospholipase D (depending on the phospholipid substrate). […] To date we have identified three subtypes of edg receptors that respond to LPA as an agonist. These are EDG-2, EDG-6 and EDG-5 (referred to also as LPA1, LPA2 and LPA3, respectively (Chun, J, Contos, J J A and Munroe, D G. 1998. A growing family of receptor genes for lysophosphatidic acid (LPA) and other lyso-phospholipids. Cell Biochem Biophys (in press)). The EDG-5 receptor is set out in co-pending U.S. application Ser. No. 08/997,803 to MLUNROE et al., incorporated herein by reference and the amino acid sequence and cDNA sequence for the EDG-6 receptor is set out in FIGS. 21 and 22, respectively. To determine whether these receptors might mediate inflammatory responses, each was cotransfected separately with SRE, NF-κB or AP-1 reporter genes. […]

Assay [4] concerns 293-EBNA cells transfected with empty expression vector pcDNA3. Put plainly: SRE luciferase reporter in 293-EBNA cells, empty vector pcDNA3. The conditions noted are these: 10 μM LPA. The assay is classed as cell-based. The procedure: NE-κB activates gene expression by binding to specific DNA sequences found in the promoters of genes regulated by this inflammation-related transcription factor. […] The SRE reporter was identical to the NF-κB reporter, except that the NF-κB binding sites were replaced with 2 SRE sites. The new reporter was called 2XSREtk-p4Luc-zeo.
The protocol described in Example 11 for Assay 1 was followed except for the following changes:
as §3, §4, §5
Transfection was accomplished using the Lipofectamine Plus kit (Life Technologies, Cat. 10964-013), using the manufacturer's recommended conditions.
as §6

Assay [5] has as its target T2, EDG-2 (Homo sapiens, UniProt Q92633).
T2 construct: expressed in transfected cells; host or cells: 293-EBNA
Kind of assay: NF-κB reporter in 293-EBNA cells, EDG-2. Format: cell-based. The conditions noted are these: 10 μM LPA, overnight. The source says:
(§7) LPA, like S1P, is abundant in serun, but not plasma. Moreover, LPA is produced as a consequence of phospholipase A2 with or without the contribution of phospholipase D (depending on the phospholipid substrate). […] To date we have identified three subtypes of edg receptors that respond to LPA as an agonist. These are EDG-2, EDG-6 and EDG-5 (referred to also as LPA1, LPA2 and LPA3, respectively (Chun, J, Contos, J J A and Munroe, D G. 1998. A growing family of receptor genes for lysophosphatidic acid (LPA) and other lyso-phospholipids. Cell Biochem Biophys (in press)). The EDG-5 receptor is set out in co-pending U.S. application Ser. No. 08/997,803 to MLUNROE et al., incorporated herein by reference and the amino acid sequence and cDNA sequence for the EDG-6 receptor is set out in FIGS. 21 and 22, respectively. To determine whether these receptors might mediate inflammatory responses, each was cotransfected separately with SRE, NF-κB or AP-1 reporter genes. […] This transcription factor, like NF-κB has been implicated in inflammatory and neoplastic signal transduction., though the gene targets of its action are largely distinct from those of NF-κB (Adcock IM. 1997. Transcription factors as activators of gene transcription: AP-1 and NF-κB. Monaldi Arch Chest Dis 52:178-186. Review). […]

For assay [6], the system named is EDG-6. Kind of assay: NF-κB reporter in 293-EBNA cells, EDG-6. The assay is classed as cell-based, human. The conditions noted are these: 10 μM LPA, overnight.
Excerpt: as §7
Target sequence in this assay (Q9HBW0 1-340 limits assumed): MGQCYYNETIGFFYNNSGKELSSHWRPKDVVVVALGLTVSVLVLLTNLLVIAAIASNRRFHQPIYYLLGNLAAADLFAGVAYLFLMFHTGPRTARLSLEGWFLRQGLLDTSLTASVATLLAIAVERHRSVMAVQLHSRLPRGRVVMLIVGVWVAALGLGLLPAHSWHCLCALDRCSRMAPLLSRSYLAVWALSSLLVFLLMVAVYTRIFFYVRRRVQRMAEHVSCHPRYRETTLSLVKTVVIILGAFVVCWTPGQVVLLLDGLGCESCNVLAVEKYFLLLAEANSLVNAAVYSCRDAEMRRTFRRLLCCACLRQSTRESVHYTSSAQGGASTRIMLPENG

The target of assay [7] is T2, EDG-2. Put plainly: SRE reporter in 293-EBNA cells, EDG-2. The assay is classed as cell-based. The settings on record: 10 μM LPA.
Excerpt: as §7

The target of assay [8] is T1, EDG-5. Put plainly: SRE reporter in 293-EBNA cells, EDG-5. The assay is classed as cell-based. The conditions noted are these: 10 μM LPA.
Excerpt: as §7

Assay [9] concerns EDG-6. Put plainly: SRE reporter in 293-EBNA cells, EDG-6. Format: cell-based, human. The conditions noted are these: 10 μM LPA.
Excerpt: as §7
Target sequence in this assay (Q9HBW0 1-330 limits assumed): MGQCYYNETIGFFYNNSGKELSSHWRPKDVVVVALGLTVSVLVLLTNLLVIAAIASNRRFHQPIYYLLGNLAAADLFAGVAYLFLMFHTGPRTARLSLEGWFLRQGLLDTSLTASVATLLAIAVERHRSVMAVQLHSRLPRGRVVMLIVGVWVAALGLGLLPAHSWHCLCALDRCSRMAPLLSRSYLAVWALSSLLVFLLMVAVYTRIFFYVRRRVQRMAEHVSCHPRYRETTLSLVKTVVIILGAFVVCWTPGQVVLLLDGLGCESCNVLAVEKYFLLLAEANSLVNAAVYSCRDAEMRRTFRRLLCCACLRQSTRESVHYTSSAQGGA

Assay [10] concerns the target T2, EDG-2. Kind of assay: AP-1 reporter in 293-EBNA cells, EDG-2. Format: cell-based. The conditions noted are these: 10 μM LPA.
Excerpt: as §7

Assay [11] deals with T1, EDG-5. Put plainly: AP-1 reporter in 293-EBNA cells, EDG-5. Format: cell-based. The settings on record: 10 μM LPA.
Excerpt: as §7

In assay [12] the test system is EDG-6. Put plainly: AP-1 reporter in 293-EBNA cells, EDG-6. Format: cell-based, human. The settings on record: 10 μM LPA.
Excerpt: as §7
Target sequence in this assay (Q9HBW0 1-340 limits assumed): as the sequence (Q9HBW0 1-340 limits assumed) above

Assay [13] relates to 293-EBNA cells transfected with empty expression vector pcDNA3. Kind of assay: AP-1 reporter in 293-EBNA cells, empty vector pcDNA3. The conditions noted are these: 10 μM LPA. The assay is classed as cell-based.
Excerpt: as §7

Experimental findings from patent US6482609B1, “Isolated human EDG-4 receptor and polynucletide encoding said receptor” (priority 1997, dated 2002) are described below.

T2 sequence (Q92633 whole entry): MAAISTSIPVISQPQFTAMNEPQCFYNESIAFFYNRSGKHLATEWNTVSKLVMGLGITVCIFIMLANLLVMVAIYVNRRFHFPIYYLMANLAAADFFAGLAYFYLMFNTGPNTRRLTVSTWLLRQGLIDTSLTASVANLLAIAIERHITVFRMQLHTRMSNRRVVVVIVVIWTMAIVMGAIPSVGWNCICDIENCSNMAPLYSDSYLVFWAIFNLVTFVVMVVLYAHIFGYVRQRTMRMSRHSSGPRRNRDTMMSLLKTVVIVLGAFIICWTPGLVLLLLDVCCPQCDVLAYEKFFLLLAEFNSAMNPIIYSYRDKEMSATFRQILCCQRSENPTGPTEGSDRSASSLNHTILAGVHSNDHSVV

On to lysophosphatidic acid [LPA], for which, in assay [1], the “IL-8 levels increase over untreated controls” value turned out to be 3 fold. In addition, the IL-8 release entry in the assay with HL-60 cells is given as “no such release”. In addition, in the assay with 293-EBNA cells, the IL-8 production result was “no IL-8 production”. The “NF-κB reporter response in control cells” value in [2] is given as “no response to LPA”. Besides, the “Activation of the NF-κB reporter” value on EDG-5 [3], at EDG-2 [5] and in the assay with EDG-6 [6] was 3-4 fold each time. Further, the “Endogenous SRE reporter response vs untreated control cells” value in assay [4] was “about 1.5 fold”. Also, the “Induction of the SRE reporter” value at EDG-2 [7] and at EDG-5 [8] was “greater than 2 fold” in each case. The SRE reporter induction result in the assay on EDG-6 [9] is “strongly induced both reporters”. Also, the “Induction of the AP-1 reporter” value at EDG-2 [10] and at EDG-5 [11] was “greater than 2 fold” in each case. Besides, the AP-1 reporter induction entry in the assay on EDG-6 [12] was “strongly induced both reporters”. The “Endogenous AP-1 reporter response vs untreated control cells” value in assay [13] is reported as “about 1.5 fold”.
